Assays:
[1] = test system: Tyrosine-protein kinase ABL1 (Homo sapiens), P00519 [M351T]; settings: Compound concentration 1000.0 nM
[2] = test system: Tyrosine-protein kinase ABL1 (Homo sapiens), P00519 [Q252H]; settings: Compound concentration 1000.0 nM
[3] = test system: Tyrosine-protein kinase ABL1 (Homo sapiens), P00519 [T315I]; settings: Compound concentration 1000.0 nM
[4] = biological target: BMP-2-inducible protein kinase (Homo sapiens) (UniProt Q9NSY1); settings: Compound concentration 1000.0 nM
[5] = test system: Serine/threonine-protein kinase B-raf (Homo sapiens), P15056 [V600E]; settings: Compound concentration 1000.0 nM
[6] = biological target: Calcium/calmodulin-dependent protein kinase type 1 (Homo sapiens) (UniProt Q14012); settings: Compound concentration 1000.0 nM
[7] = biological target: Calcium/calmodulin-dependent protein kinase type II subunit delta (Homo sapiens) (UniProt Q13557); settings: Compound concentration 1000.0 nM
[8] = biological target: Calcium/calmodulin-dependent protein kinase kinase 1 (Homo sapiens) (UniProt Q8N5S9); settings: Compound concentration 1000.0 nM
[9] = biological target: Cyclin-dependent kinase 3 (Homo sapiens) (UniProt Q00526); settings: Compound concentration 1000.0 nM
Cyclin-dependent kinase 3 (Homo sapiens), sequence (Q00526 whole entry, looked up): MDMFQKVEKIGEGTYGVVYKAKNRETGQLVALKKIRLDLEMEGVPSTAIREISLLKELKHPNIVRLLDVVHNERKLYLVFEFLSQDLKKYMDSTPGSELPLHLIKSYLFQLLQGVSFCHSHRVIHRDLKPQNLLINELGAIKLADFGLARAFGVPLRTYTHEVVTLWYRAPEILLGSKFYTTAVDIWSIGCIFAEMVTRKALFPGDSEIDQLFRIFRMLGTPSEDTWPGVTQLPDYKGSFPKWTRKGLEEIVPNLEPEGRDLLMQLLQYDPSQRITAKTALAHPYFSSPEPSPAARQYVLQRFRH

[10] = biological target: Serine/threonine-protein kinase Chk2 (Homo sapiens) (UniProt O96017); settings: Compound concentration 1000.0 nM
[11] = biological target: Citron Rho-interacting kinase (Homo sapiens) (UniProt O14578); settings: Compound concentration 1000.0 nM
[12] = biological target: Megakaryocyte-associated tyrosine-protein kinase (Homo sapiens) (UniProt P42679); settings: Compound concentration 1000.0 nM
[13] = biological target: Epithelial discoidin domain-containing receptor 1 (Homo sapiens) (UniProt Q08345); settings: Compound concentration 1000.0 nM
[14] = biological target: Ephrin type-A receptor 8 (Homo sapiens) (UniProt P29322); settings: Compound concentration 1000.0 nM
[15] = biological target: Receptor tyrosine-protein kinase erbB-2 (Homo sapiens) (UniProt P04626); settings: Compound concentration 1000.0 nM
[16] = biological target: Interleukin-1 receptor-associated kinase 3 (Homo sapiens) (UniProt Q9Y616); settings: Compound concentration 1000.0 nM
[17] = test system: Mast/stem cell growth factor receptor Kit (Homo sapiens), P10721 [V559D,T670I]; settings: Compound concentration 1000.0 nM
[18] = biological target: Serine/threonine-protein kinase STK11 (Homo sapiens) (UniProt Q15831); settings: Compound concentration 1000.0 nM
[19] = test system: Leucine-rich repeat serine/threonine-protein kinase 2 (Homo sapiens), Q5S007 [G2019S]; settings: Compound concentration 1000.0 nM
Leucine-rich repeat serine/threonine-protein kinase 2 (Homo sapiens), Q5S007 [G2019S], sequence (Q5S007 whole entry G2019S): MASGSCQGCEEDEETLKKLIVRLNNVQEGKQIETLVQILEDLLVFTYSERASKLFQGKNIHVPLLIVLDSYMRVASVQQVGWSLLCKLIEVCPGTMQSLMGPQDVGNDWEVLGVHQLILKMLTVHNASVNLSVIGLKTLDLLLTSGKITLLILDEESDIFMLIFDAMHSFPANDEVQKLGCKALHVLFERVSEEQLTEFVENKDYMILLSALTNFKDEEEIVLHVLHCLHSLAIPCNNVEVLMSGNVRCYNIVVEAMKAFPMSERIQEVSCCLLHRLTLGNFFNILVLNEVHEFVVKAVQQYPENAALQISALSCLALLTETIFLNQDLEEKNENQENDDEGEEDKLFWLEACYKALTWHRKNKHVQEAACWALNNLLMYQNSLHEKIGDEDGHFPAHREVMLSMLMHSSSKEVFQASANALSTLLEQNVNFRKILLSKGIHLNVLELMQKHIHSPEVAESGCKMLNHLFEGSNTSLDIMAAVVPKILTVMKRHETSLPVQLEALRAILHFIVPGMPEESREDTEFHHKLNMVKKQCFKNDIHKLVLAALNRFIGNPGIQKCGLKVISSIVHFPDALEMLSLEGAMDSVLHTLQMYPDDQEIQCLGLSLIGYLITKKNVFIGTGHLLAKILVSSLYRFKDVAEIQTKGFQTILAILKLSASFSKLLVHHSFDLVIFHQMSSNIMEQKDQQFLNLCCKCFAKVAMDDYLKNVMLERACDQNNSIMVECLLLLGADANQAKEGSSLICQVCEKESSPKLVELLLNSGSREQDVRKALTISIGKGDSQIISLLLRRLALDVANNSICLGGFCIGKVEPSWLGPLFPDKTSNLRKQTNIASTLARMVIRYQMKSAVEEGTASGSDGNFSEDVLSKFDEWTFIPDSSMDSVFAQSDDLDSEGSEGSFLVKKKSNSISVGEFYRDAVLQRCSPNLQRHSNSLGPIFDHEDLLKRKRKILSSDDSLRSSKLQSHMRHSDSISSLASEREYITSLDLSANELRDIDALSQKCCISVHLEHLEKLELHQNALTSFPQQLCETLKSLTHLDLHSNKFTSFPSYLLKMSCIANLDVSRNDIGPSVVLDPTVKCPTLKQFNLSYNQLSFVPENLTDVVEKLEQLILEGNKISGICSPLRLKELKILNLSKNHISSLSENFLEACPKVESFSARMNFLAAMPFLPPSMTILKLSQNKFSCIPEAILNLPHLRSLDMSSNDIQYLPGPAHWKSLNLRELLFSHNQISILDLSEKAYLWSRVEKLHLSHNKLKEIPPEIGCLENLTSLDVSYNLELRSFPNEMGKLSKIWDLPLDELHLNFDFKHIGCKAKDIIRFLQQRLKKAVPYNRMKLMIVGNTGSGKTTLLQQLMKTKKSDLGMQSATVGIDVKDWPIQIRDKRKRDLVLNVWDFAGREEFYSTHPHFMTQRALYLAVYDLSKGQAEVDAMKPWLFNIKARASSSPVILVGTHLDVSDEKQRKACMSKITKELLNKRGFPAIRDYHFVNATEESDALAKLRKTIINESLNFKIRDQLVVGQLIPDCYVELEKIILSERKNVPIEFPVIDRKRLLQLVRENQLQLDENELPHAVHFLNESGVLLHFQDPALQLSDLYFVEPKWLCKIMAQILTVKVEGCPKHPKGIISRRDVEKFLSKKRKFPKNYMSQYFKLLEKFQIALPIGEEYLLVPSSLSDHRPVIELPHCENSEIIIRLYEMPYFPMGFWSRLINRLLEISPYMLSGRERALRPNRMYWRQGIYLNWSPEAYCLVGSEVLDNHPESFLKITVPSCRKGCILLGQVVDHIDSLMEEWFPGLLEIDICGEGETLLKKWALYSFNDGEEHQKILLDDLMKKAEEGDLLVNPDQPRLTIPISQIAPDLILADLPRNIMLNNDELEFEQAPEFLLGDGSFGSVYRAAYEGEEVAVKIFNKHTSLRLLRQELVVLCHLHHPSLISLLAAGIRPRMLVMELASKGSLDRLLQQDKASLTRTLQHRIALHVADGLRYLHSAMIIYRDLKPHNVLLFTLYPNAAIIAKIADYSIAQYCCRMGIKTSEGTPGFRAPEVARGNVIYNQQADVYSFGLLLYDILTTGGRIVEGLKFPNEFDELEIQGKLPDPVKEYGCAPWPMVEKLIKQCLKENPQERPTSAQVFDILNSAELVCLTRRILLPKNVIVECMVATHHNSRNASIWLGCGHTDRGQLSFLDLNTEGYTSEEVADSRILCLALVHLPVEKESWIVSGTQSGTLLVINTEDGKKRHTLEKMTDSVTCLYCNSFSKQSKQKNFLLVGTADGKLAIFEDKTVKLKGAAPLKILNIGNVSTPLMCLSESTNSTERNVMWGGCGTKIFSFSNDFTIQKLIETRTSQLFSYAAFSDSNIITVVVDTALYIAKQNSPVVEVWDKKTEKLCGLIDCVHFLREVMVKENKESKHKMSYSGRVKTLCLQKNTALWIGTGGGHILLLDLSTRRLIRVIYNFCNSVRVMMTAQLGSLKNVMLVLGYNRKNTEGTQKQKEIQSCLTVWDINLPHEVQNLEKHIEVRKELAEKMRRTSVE

[20] = biological target: Leukocyte tyrosine kinase receptor (Homo sapiens) (UniProt P29376); settings: Compound concentration 1000.0 nM
Leukocyte tyrosine kinase receptor (Homo sapiens), sequence (P29376 whole entry): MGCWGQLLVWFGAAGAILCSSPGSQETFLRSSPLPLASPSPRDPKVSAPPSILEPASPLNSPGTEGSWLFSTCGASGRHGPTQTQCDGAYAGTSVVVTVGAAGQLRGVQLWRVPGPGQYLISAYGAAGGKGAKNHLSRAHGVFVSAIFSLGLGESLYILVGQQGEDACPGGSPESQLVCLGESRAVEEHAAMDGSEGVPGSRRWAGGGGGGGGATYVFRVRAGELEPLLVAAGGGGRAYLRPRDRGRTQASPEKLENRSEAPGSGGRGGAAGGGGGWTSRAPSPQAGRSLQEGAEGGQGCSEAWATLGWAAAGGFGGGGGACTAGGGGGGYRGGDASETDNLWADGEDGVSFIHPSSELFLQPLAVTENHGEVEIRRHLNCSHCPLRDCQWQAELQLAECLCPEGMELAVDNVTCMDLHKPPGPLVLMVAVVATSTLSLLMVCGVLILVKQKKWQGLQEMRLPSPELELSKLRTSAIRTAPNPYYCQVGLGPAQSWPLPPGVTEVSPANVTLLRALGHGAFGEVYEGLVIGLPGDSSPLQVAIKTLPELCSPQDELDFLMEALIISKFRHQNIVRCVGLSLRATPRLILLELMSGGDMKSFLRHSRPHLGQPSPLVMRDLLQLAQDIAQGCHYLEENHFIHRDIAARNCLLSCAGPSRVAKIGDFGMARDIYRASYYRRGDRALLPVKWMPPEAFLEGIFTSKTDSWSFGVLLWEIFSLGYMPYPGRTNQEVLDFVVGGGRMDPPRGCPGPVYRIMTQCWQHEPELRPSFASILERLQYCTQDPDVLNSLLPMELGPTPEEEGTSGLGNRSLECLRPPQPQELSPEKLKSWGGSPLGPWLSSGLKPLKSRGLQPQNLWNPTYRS

[21] = biological target: Serine/threonine-protein kinase MAK (Homo sapiens) (UniProt P20794); settings: Compound concentration 1000.0 nM
Serine/threonine-protein kinase MAK (Homo sapiens), sequence (P20794 whole entry): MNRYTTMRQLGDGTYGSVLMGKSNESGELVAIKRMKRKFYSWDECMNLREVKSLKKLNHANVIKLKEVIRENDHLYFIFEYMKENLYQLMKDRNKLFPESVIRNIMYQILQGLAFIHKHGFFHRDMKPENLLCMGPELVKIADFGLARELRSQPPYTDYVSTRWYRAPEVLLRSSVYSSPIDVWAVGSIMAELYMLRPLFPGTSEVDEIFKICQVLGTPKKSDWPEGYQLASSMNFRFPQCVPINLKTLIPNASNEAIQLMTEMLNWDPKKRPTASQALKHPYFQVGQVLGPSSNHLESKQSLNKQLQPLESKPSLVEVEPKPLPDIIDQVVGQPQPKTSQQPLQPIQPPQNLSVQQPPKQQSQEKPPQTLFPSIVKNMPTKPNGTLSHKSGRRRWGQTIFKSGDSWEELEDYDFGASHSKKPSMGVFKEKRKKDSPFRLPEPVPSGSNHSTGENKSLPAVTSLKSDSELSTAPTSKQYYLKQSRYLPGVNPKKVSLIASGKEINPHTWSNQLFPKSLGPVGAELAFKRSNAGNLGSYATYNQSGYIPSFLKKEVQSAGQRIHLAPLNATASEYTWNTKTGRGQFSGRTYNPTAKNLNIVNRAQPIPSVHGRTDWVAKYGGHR

[22] = biological target: MAP/microtubule affinity-regulating kinase 4 (Homo sapiens) (UniProt Q96L34); settings: Compound concentration 1000.0 nM
[23] = biological target: Dual specificity mitogen-activated protein kinase kinase 1 (Homo sapiens) (UniProt Q02750); settings: Compound concentration 1000.0 nM
[24] = biological target: Tyrosine-protein kinase Mer (Homo sapiens) (UniProt Q12866); settings: Compound concentration 1000.0 nM
[25] = test system: Hepatocyte growth factor receptor (Homo sapiens), P08581 [M1250T]; settings: Compound concentration 1000.0 nM
[26] = biological target: Serine/threonine-protein kinase 3 (Homo sapiens) (UniProt Q13188); settings: Compound concentration 1000.0 nM
[27] = biological target: Mitogen-activated protein kinase 14 (Homo sapiens, UniProt Q16539); settings: Compound concentration 1000.0 nM
[28] = biological target: Mitogen-activated protein kinase 13 (Homo sapiens) (UniProt O15264); settings: Compound concentration 1000.0 nM
[29] = biological target: Cyclin-dependent kinase 17 (Homo sapiens) (UniProt Q00537); settings: Compound concentration 1000.0 nM
[30] = biological target: Platelet-derived growth factor receptor beta (Homo sapiens) (UniProt P09619); settings: Compound concentration 1000.0 nM
[31] = test system: Phosphatidylinositol 4,5-bisphosphate 3-kinase catalytic subunit alpha isoform (Homo sapiens), P42336 [Q546K]; settings: Compound concentration 1000.0 nM
[32] = biological target: Serine/threonine-protein kinase N1 (Homo sapiens) (UniProt Q16512); settings: Compound concentration 1000.0 nM
[33] = biological target: Serine/threonine-protein kinase D2 (Homo sapiens) (UniProt Q9BZL6); settings: Compound concentration 1000.0 nM
[34] = biological target: cGMP-dependent protein kinase 2 (Homo sapiens) (UniProt Q13237); settings: Compound concentration 1000.0 nM
[35] = biological target: Receptor-interacting serine/threonine-protein kinase 4 (Homo sapiens) (UniProt P57078); settings: Compound concentration 1000.0 nM
[36] = biological target: Ribosomal protein S6 kinase alpha-3 (Homo sapiens) (UniProt P51812); settings: Compound concentration 1000.0 nM
Ribosomal protein S6 kinase alpha-3 (Homo sapiens), sequence (P51812 whole entry): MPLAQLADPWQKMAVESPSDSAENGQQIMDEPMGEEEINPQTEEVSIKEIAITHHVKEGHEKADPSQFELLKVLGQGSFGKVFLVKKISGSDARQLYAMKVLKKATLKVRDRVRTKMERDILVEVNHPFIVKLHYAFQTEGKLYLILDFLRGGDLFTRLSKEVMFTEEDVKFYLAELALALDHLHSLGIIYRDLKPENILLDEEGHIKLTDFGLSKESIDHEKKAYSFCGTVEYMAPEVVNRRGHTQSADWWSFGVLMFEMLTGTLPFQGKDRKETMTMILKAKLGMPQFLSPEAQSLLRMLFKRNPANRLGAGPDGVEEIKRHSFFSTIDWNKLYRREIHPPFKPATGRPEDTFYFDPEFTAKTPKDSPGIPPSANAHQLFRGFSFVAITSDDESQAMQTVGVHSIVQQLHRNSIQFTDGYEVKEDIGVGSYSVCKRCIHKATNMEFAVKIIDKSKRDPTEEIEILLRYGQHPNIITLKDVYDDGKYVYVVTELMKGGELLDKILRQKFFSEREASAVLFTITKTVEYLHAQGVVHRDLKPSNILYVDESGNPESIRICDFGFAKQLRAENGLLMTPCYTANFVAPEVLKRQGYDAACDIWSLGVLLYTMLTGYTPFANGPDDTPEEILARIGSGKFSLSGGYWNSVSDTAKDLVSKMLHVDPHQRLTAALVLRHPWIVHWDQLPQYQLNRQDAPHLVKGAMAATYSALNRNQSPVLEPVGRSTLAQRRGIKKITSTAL

[37] = biological target: SRSF protein kinase 1 (Homo sapiens) (UniProt Q96SB4); settings: Compound concentration 1000.0 nM
[38] = biological target: Serine/threonine-protein kinase 33 (Homo sapiens) (UniProt Q9BYT3); settings: Compound concentration 1000.0 nM
[39] = biological target: Serine/threonine-protein kinase 36 (Homo sapiens) (UniProt Q9NRP7); settings: Compound concentration 1000.0 nM
[40] = biological target: Tyrosine-protein kinase receptor Tie-1 (Homo sapiens) (UniProt P35590); settings: Compound concentration 1000.0 nM
[41] = biological target: Tyrosine-protein kinase TXK (Homo sapiens) (UniProt P42681); settings: Compound concentration 1000.0 nM
[42] = biological target: Serine/threonine-protein kinase ULK3 (Homo sapiens) (UniProt Q6PHR2); settings: Compound concentration 1000.0 nM
[43] = biological target: Mitogen-activated protein kinase kinase kinase 19 (Homo sapiens) (UniProt Q56UN5); settings: Compound concentration 1000.0 nM
[44] = biological target: GABA-A receptor; anion channel (Rattus norvegicus) (UniProt O09028+P15431+P18506+P18508+P19969+P20236+P23574+P23576+P28471+P28473+P30191+P62813+P63079+P63138+Q91ZM7+Q9ES14); settings: Compound concentration 10.0 uM

Cc1c(C(=O)O)cc(-c2ccc(C3CCNCC3)cc2)c2ccc(-c3ccc(C(F)(F)F)cc3)cc12 [PPTN-NC]
inactive: residual activity [1] 100% | residual activity [2] 100% | residual activity [3] 100% | residual activity [4] 83% | residual activity [5] 100% | residual activity [6] 100% | residual activity [7] 100% | residual activity [8] 100% | residual activity [9] 100% | residual activity [10] 100% | residual activity [11] 100% | residual activity [12] 100% | residual activity [13] 100% | residual activity [14] 100% | residual activity [15] 100% | residual activity [16] 100% | residual activity [17] 100% | residual activity [18] 94% | residual activity [19] 100% | residual activity [20] 100% | residual activity [21] 91% | residual activity [22] 97% | residual activity [23] 100% | residual activity [24] 91% | residual activity [25] 97% | residual activity [26] 100% | residual activity [27] 100% | residual activity [28] 96% | residual activity [29] 100% | residual activity [30] 100% | residual activity [31] 100% | residual activity [32] 100% | residual activity [33] 100% | residual activity [34] 71% | residual activity [35] 97% | residual activity [36] 100% | residual activity [37] 100% | residual activity [38] 100% | residual activity [39] 86% | residual activity [40] 100% | residual activity [41] 100% | residual activity [42] 95% | residual activity [43] 100% | inhibition [44] 1.21%

O=C(O)c1cc(-c2ccc(C3CCNCC3)cc2)c2ccc(-c3ccc(C(F)(F)F)cc3)cc2c1 [PPTN]
inactive: residual activity [1] 100% | residual activity [2] 90% | residual activity [3] 100% | residual activity [4] 84% | residual activity [5] 100% | residual activity [6] 100% | residual activity [7] 100% | residual activity [8] 100% | residual activity [9] 100% | residual activity [10] 100% | residual activity [11] 100% | residual activity [12] 100% | residual activity [13] 100% | residual activity [14] 100% | residual activity [15] 100% | residual activity [16] 100% | residual activity [17] 100% | residual activity [18] 100% | residual activity [19] 100% | residual activity [20] 100% | residual activity [21] 100% | residual activity [22] 100% | residual activity [23] 100% | residual activity [24] 85% | residual activity [25] 86% | residual activity [26] 100% | residual activity [27] 100% | residual activity [28] 97% | residual activity [29] 100% | residual activity [30] 100% | residual activity [31] 100% | residual activity [32] 100% | residual activity [33] 100% | residual activity [34] 79% | residual activity [35] 100% | residual activity [36] 100% | residual activity [37] 86% | residual activity [38] 100% | residual activity [39] 100% | residual activity [40] 100% | residual activity [41] 100% | residual activity [42] 100% | residual activity [43] 100% | inhibition [44] -3.98%

Source: ChEMBL document CHEMBL4507292 (2021)
